Source: patent publication US20250129092A1, “COMPOUNDS USEFUL IN MODULATION OF AHR SIGNALLING” (JAGUAHR THERAPEUTICS PTE LTD, priority 2021, published 2025)
Converted amounts (≈) assume the structure as drawn.

Key:
ChromLogD = type: physicochemical
Kinetic solubility = type: physicochemical; conditions: kinetic from dmso stock
Hepatocytes Clint (Hu) = type: in vitro ADME; conditions: human
Hepatocytes Clint (m) = type: in vitro ADME; conditions: mouse
[1] = Caco-2 permeability / efflux; type: in vitro ADME; conditions: human
CYP 3A4 = CYP 3A4 (Homo sapiens, UniProt P08684); test: CYP 3A4; type: in vitro ADME
CYP 1A2 = target: T1, CYP 1A2 (Homo sapiens, UniProt P05177); test: CYP 1A2; type: in vitro ADME
T1 sequence (P05177 1-516): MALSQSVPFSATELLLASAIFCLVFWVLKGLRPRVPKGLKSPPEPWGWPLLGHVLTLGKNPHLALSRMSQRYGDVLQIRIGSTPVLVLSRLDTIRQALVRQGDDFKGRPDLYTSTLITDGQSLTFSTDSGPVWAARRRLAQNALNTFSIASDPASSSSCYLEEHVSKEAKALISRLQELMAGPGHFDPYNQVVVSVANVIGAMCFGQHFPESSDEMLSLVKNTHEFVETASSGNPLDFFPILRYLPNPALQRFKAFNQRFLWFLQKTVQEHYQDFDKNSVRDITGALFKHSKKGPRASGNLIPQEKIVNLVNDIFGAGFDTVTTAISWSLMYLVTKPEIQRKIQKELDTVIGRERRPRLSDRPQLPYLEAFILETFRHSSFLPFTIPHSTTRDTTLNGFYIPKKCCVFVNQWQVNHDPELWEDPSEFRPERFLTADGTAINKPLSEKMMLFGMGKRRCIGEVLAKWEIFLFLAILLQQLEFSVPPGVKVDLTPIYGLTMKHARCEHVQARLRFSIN

CYP 2C9 = CYP 2C9 (Homo sapiens, UniProt P11712); test: CYP 2C9; type: in vitro ADME
CYP 2C19 = CYP 2C19 (Homo sapiens, UniProt P33261); test: CYP 2C19; type: in vitro ADME
CYP 2D6 = CYP 2D6 (Homo sapiens, UniProt P10635); test: CYP 2D6; type: in vitro ADME
hERG = hERG (Homo sapiens, UniProt Q12809); test: hERG
AhR [2] = target: T2, AhR (Homo sapiens, UniProt P35869); test: AhR antagonism in human PBMCs - inhibition of IL-22 release; type: cell-based; parameters: endogenous in cells; conditions: human PBMCs activated with CD3/CD28 agonist mixture, 72 hrs, IL-22 ELISA; average; read-out: hPBMC Inhibition of CD3/CD28 induced IL-22 release: av. pIC50 (converted)
T2 sequence (P35869 11-848): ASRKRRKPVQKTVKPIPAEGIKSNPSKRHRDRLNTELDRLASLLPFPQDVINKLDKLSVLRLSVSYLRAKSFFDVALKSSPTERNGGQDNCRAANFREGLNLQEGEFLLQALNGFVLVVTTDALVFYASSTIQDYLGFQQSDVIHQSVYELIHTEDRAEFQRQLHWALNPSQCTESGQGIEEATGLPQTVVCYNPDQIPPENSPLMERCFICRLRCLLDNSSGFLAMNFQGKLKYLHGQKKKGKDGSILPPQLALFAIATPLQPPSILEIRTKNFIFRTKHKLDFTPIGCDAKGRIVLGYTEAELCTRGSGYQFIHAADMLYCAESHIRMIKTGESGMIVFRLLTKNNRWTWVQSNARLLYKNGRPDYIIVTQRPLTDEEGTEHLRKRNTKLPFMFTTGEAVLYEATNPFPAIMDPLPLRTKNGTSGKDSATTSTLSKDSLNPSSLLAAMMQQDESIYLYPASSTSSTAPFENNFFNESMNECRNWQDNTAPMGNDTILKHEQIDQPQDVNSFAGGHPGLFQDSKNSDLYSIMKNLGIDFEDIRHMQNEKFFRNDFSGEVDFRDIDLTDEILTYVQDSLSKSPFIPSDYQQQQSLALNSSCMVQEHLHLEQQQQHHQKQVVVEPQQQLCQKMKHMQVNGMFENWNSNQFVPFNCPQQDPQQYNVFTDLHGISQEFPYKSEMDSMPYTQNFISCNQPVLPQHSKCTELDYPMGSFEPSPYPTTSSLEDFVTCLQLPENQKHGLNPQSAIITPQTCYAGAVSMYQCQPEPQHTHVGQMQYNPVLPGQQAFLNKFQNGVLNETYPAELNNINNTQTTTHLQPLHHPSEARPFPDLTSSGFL
Text: In Vitro Assay 3: AhR Antagonism in Human Peripheral Blood Mononuclear Cells (PBMCs)-Inhibition of Interleukin-22 (IL-22) Release.
PBMCs were isolated from human peripheral blood using Lymphoprep™ and diluted to 1×10^6 cells per ml in RPMI media containing […] foetal bovine serum, 1% penicillin-streptomycin and 1% non essential amino acids. PBMCs were subsequently activated with 1p1 per 100,000 cells of a CD3/CD28 agonist mixture (human T Cell TransAct™ (Miltenyi Biotec)) and then plated at 100,000 cells per well in a round bottom 96 well tissue culture plate. One hour after stimulation seven concentrations of each test compound or vehicle (final [DMSO] 0.2%) were added. The plates were then placed in an incubator at 37° C., ≥85% humidity, 5% […] for 72 hrs before the media was removed and stored at −20° C. until cytokine analysis. IL-22 was measured using human IL-22 DuoSet ELISA (R&D systems) according to the manufacturer's instructions.

AhR [3] = target: T2, AhR; test: AhR antagonism in U937 cells (Promega P450-Glo assay); type: cell-based; parameters: endogenous in cells; host or cells: U937 cells; conditions: CYP1A1 activity readout (Luciferin-CEE), head names VAF347, average, read-out: U937 Antagonist pIC50-VAF347: av. pIC50 (converted)
How it was run: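 Human U937 histiocytic lymphoma cells were seeded in Ultraculture serum free media (Lonza) at 100,000 cells per well in round bottom 96 well plates and exposed to seven test compound concentrations for 24 hrs at 37° C., ≥85% humidity, 5% CO2. AhR antagonism was measured as CYP1A1 activity. After removing supernatant, Luciferin-CEE ([Final] 83 μM) was added for 3 hrs. Detection reagent stopped the reaction, and luminescence was read 20 minutes later.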

Sequence of CYP 3A4 (P08684 whole entry, species assumed): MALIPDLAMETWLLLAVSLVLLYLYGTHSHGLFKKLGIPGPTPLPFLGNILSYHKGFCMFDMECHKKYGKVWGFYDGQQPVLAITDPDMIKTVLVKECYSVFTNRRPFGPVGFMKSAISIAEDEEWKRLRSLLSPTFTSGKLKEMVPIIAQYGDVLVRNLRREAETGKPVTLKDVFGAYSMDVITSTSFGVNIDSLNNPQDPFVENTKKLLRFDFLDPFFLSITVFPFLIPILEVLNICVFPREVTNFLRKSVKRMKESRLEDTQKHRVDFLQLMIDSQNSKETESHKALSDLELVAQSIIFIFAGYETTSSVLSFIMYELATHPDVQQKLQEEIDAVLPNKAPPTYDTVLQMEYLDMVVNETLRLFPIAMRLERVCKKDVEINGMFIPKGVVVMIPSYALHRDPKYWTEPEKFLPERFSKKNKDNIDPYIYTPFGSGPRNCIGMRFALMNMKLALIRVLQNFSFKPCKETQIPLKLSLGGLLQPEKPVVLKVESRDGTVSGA
Sequence of CYP 2C9 (P11712 whole entry): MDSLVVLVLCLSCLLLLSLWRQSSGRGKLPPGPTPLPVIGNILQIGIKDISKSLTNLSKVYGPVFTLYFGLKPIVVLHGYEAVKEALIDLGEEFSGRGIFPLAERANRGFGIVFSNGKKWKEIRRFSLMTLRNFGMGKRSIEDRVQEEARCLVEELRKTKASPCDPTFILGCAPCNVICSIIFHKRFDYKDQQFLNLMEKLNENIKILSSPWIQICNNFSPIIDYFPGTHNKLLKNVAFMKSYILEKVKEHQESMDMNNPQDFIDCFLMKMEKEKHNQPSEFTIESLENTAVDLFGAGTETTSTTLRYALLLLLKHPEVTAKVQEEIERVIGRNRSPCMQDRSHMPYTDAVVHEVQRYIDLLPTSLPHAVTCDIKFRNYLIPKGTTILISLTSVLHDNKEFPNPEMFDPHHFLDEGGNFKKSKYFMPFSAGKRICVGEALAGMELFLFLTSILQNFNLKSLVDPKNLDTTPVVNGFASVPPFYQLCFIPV
Sequence of CYP 2C19 (P33261 whole entry): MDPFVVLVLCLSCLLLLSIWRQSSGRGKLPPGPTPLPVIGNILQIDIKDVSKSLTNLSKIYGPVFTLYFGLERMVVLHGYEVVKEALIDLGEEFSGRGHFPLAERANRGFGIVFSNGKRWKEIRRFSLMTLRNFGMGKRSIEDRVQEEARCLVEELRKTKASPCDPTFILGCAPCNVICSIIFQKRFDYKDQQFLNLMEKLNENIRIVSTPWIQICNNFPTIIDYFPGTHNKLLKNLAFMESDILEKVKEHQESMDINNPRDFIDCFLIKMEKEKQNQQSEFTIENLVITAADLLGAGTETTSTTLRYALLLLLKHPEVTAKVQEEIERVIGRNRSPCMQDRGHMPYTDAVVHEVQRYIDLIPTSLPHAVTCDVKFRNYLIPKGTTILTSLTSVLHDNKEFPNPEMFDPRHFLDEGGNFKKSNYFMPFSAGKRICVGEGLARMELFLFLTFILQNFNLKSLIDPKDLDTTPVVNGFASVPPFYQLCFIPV
Sequence of hERG (Q12809 whole entry): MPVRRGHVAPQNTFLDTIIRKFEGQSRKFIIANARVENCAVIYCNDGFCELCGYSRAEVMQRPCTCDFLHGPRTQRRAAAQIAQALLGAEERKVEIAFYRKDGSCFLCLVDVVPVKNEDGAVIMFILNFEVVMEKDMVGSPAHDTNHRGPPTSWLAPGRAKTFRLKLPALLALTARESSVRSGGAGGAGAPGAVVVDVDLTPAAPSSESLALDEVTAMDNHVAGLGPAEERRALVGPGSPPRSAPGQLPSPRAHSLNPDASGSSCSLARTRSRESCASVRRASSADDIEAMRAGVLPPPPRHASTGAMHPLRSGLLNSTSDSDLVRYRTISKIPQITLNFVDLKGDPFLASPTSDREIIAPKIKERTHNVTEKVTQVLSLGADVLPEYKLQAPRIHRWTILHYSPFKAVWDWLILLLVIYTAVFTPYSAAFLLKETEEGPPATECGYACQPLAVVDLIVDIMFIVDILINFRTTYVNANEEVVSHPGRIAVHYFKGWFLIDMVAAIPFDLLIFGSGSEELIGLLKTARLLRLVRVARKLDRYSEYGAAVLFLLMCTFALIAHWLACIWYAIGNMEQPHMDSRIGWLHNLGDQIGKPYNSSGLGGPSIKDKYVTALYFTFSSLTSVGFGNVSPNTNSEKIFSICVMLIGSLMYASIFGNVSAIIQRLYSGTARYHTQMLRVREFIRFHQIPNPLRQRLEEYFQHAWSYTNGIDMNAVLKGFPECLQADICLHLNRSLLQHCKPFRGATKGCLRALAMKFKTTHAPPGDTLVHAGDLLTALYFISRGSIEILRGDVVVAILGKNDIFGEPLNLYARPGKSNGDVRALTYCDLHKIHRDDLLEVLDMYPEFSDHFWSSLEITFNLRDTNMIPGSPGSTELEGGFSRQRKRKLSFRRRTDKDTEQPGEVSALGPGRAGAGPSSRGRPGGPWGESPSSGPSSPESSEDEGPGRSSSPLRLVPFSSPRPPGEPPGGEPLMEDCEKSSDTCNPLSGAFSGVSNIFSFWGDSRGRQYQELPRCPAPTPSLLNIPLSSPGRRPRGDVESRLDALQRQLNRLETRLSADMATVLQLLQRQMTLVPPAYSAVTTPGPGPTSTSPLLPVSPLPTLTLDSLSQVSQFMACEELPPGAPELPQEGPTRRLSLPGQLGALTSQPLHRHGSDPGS
Sequence of CYP 2D6 (P10635 whole entry): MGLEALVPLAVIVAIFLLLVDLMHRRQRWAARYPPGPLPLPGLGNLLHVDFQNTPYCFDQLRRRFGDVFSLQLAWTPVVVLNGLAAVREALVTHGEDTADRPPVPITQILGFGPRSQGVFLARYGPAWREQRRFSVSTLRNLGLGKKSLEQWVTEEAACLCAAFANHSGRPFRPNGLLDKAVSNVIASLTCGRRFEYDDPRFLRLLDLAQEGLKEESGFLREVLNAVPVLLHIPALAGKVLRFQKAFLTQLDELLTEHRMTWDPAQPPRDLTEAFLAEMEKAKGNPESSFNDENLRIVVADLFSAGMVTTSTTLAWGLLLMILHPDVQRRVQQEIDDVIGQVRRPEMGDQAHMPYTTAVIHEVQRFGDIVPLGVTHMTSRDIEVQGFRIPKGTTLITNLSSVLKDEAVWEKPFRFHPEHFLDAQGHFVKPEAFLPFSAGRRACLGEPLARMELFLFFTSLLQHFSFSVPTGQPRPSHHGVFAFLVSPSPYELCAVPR

SMILES | IC50 (AhR [2]) [nM] | IC50 (AhR [3]) [nM] | further results
O=c1[nH]cccc1-c1nc2c(c(OCCc3c[nH]c4ccccc34)n1)OCCN2 [Example 25, 3-(4-(2-(1H-indol-3-yl)ethoxy)-7,8-dihydro-6H-pyrimido[5,4-b][1,4]oxazin-2-yl)pyridin-2(1H)-one] | 1.7 | 2.69 | chromatographic logD (ChromLogD): 2.39; solubility kinetic (Kinetic solubility): 119 µM (≈ 46.3 µg/mL); hepatocyte CLint (Hepatocytes Clint (Hu)): 7.1 µL/min/1e6 cells; hepatocyte CLint (Hepatocytes Clint (m)): 115 µL/min/1e6 cells; efflux ratio [1]: 4; Papp A→B ([1]; A to B): 7.16 ×10⁻⁶ cm/s; IC50 (CYP 3A4): 7200 nM; fold difference (3A4/U937) (CYP 3A4; CYP 3A4 versus U937): 1986; IC50 (CYP 1A2): 45300 nM; IC50 (CYP 2C9): 4700 nM; IC50 (CYP 2C19): 43400 nM; IC50 (CYP 2D6): 50000 nM; IC50 (hERG): 7300 nM
COC[C@@H]1COc2c(nc(-c3ccc[nH]c3=O)nc2OCCc2c[nH]c3ccccc23)N1 [Example 48, 3-[(7R)-4-[2-(1H-indol-3-yl)ethoxy]-7-(methoxymethyl)-7,8-dihydro-6H-pyrimido[5,4-b][1,4]oxazin-2-yl]-1H-pyridin-2-one] | 1.62 | 4.37 | –
COC[C@@H]1COc2c(NCCc3c[nH]c4ccccc34)nc(-c3cc(F)cc(F)c3)nc2N1 [Example 49, (7R)-2-(3,5-difluorophenyl)-N-[2-(1H-indol-3-yl)ethyl]-7-(methoxymethyl)-7,8-dihydro-6H-pyrimido[5,4-b][1,4]oxazin-4-amine] | 6.92 | 3.39 | –
Fc1cccc(-c2nc3c(c(NCCc4c[nH]c5ccccc45)n2)OCCN3)c1 [Example 50, 2-(3-fluorophenyl)-N-[2-(1H-indol-3-yl)ethyl]-7,8-dihydro-6H-pyrimido[5,4-b][1,4]oxazin-4-amine] | 22.4 | 5.5 | –
COC[C@@H]1COc2c(nc(-c3cnc(C)s3)nc2N[C@@H]2CCc3[nH]c4ccccc4c3C2)N1 [Example 53, (7R)-7-(methoxymethyl)-2-(2-methylthiazol-5-yl)-N-[(3R)-2,3,4,9-tetrahydro-1H-carbazol-3-yl]-7,8-dihydro-6H-pyrimido[5,4-b][1,4]oxazin-4-amine] | 759 | 81.3 | –
Cc1ncc(-c2nc3c(c(N[C@@H]4CCc5[nH]c6ccccc6c5C4)n2)OC[C@@H](CO)N3)s1 [Example 54, [(7R)-2-(2-methylthiazol-5-yl)-4-[[(3R)-2,3,4,9-tetrahydro-1H-carbazol-3-yl]amino]-7,8-dihydro-6H-pyrimido[5,4-b][1,4]oxazin-7-yl]methanol] | 501 | 229 | –
COC[C@@H]1COc2c(NCCc3c[nH]c4ccccc34)nc(-c3ccc(F)cc3)nc2N1 [Example 56, (7R)-2-(4-fluorophenyl)-N-[2-(1H-indol-3-yl)ethyl]-7-(methoxymethyl)-7,8-dihydro-6H-pyrimido[5,4-b][1,4]oxazin-4-amine] | 18.6 | 12 | –
COC[C@@H]1COc2c(NCCc3c[nH]c4ccccc34)nc(-c3cccc(F)c3)nc2N1 [Example 57, (7R)-2-(3-fluorophenyl)-N-[2-(1H-indol-3-yl)ethyl]-7-(methoxymethyl)-7,8-dihydro-6H-pyrimido[5,4-b][1,4]oxazin-4-amine] | 2 | 3.09 | –
COC[C@@H]1COc2c(NCCc3c[nH]c4ccccc34)nc(-c3cnc(C)s3)nc2N1 [Example 59, (7R)—N-[2-(1H-indol-3-yl)ethyl]-7-(methoxymethyl)-2-(2-methylthiazol-5-yl)-7,8-dihydro-6H-pyrimido[5,4-b][1,4]oxazin-4-amine] | 3.24 | 3.8 | –
Cc1ncc(-c2nc(NCCc3c[nH]c4ccccc34)c3c(n2)N[C@H](CO)CO3)s1 [Example 60, [(7R)-4-[2-(1H-indol-3-yl)ethylamino]-2-(2-methylthiazol-5-yl)-7,8-dihydro-6H-pyrimido[5,4-b][1,4]oxazin-7-yl]methanol] | 7.41 | 4.27 | –
O=c1[nH]cccc1-c1nc2c(c(N[C@@H]3CCc4[nH]c5ccccc5c4C3)n1)OCCN2 [Example 63, 3-[4-[[(3R)-2,3,4,9-tetrahydro-1H-carbazol-3-yl]amino]-7,8-dihydro-6H-pyrimido[5,4-b][1,4]oxazin-2-yl]-1H-pyridin-2-one] | 158 | 93.3 | –
COc1ncccc1-c1nc2c(c(NCCc3c[nH]c4ccccc34)n1)OCCN2 [Example 64, N-[2-(1H-indol-3-yl)ethyl]-2-(2-methoxy-3-pyridyl)-7,8-dihydro-6H-pyrimido[5,4-b][1,4]oxazin-4-amine] | 145 | 61.7 | –
O=c1[nH]cc(F)cc1-c1nc2c(c(NCCc3c[nH]c4ccccc34)n1)OCCN2 [Example 66, 3-(4-((2-(1H-indol-3-yl)ethyl)amino)-7,8-dihydro-6H-pyrimido[5,4-b][1,4]oxazin-2-yl)-5-fluoropyridin-2-ol] | 0.324 | 1.02 | –
O=c1[nH]cc(F)cc1-c1nc2c(c(NCCc3c[nH]c4cc(F)ccc34)n1)OCCN2 [Example 70, 5-fluoro-3-(4-((2-(6-fluoro-1H-indol-3-yl)ethyl)amino)-7,8-dihydro-6H-pyrimido[5,4-b][1,4]oxazin-2-yl)pyridin-2 (1H)-one] | 0.646 | 1.58 | –
O=c1[nH]cc(F)cc1-c1nc2c(c(N[C@@H]3CCc4[nH]c5ccccc5c4C3)n1)OCCN2 [Example 71, (R)-5-fluoro-3-(4-((2,3,4,9-tetrahydro-1H-carbazol-3-yl)amino)-7,8-dihydro-6H-pyrimido[5,4-b][1,4]oxazin-2-yl)pyridin-2(1H)-one] | 69.2 | 126 | –
